In patent publication US20230339952A1, “MACROCYCLIC HETEROCYCLES AND USES THEREOF” (Kumquat Biosciences Inc., priority 2022, published 2023):

Experiments:
[1] = test system: NCI-H1975 (ATCC CRL-5908) cell line comprising an EGFR T790M L858R double mutation; assay: EGFR-SOS cellular inhibition assay (CellTiter-Glo cell proliferation); format: cell-based; conditions: Homo sapiens, 120 h; NCI-H1975 cell proliferation, approximately 5 days; read-out: H1975 IC50
Protocol: A CellTiter-Glo (CTG) luminescent based assay (Promega) is used to assess growth of the cells, as a measurement of the ability of the compounds herein to inhibit EGFR signaling in the cells. […] The day after plating, cells are treated with a dilution series (e.g., a 9 point 3-fold dilution series) of the compounds herein (e.g., approximately 125 μL final volume per well).

SOS1 = SOS1 (Homo sapiens (Human), UniProt Q07889); assay: Ras-SOS interaction assay (HTRF), K-Ras G13D utilized; format: binding; conditions: K-Ras G13D, read-out: SOS1 IC50
SOS1, sequence (Q07889 564-1049): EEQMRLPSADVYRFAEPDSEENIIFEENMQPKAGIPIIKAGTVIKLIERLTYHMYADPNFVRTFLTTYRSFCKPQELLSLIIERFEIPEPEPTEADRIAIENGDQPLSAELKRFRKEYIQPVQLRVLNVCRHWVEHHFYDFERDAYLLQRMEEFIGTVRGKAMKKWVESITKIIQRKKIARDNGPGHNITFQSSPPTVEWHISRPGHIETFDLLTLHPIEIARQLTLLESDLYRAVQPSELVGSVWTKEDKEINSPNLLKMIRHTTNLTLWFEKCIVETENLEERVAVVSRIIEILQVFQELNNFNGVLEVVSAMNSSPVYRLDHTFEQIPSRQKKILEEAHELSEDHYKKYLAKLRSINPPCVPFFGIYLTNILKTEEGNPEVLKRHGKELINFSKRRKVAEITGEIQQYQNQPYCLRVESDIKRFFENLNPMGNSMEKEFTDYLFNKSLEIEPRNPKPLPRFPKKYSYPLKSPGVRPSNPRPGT

Row | Compound | IC50 [1] [µM] | IC50 (SOS1) [µM]
1 | C[C@H]1Nc2ncnc3c2cc(C2CCS(=O)(=O)CC2)c(=O)n3CCCCCC(C)(C)CN2CCC(CC2)C(F)(F)c2cccc1c2 [Compound 55, (4R)-6^6-(1,1-dioxidotetrahydro-2H-thiopyran-4-yl)-2,2-difluoro-4,12,12-trimethyl-6^7,6^8-dihydro-5-aza-6(4,8)-pyrido[2,3-d]pyrimidina-1(4,1)-piperidina-3(1,3)-benzenacyclotridecaphan-6^7-one] | < 1 | < 0.1
2 | C[C@H]1Nc2ncnc3c2cc(N2CCN(C)CC2)c(=O)n3CCCCCCCN2CCC(CC2)C(F)(F)c2cccc1c2F [Compound 57, (4R)-3^2,2,2-trifluoro-4-methyl-6^6-(4-methylpiperazin-1-yl)-6^7,6^8-dihydro-5-aza-6(4,8)-pyrido[2,3-d]pyrimidina-1(4,1)-piperidina-3(1,3)-benzenacyclotridecaphan-6^7-one] | < 1 | < 0.1
3 | C[C@H]1Nc2ncnc3c2cc(C2(C#N)CC2)c(=O)n3CCCCCC(O)CN2CCC(CC2)C(F)(F)c2cccc1c2 (stereo partly drawn) [Compound 58, 1-((4R)-2,2-difluoro-12-hydroxy-4-methyl-6^7-oxo-6^7,6^8-dihydro-5-aza-6(4,8)-pyrido[2,3-d]pyrimidina-1(4,1)-piperidina-3(1,3)-benzenacyclotridecaphane-6^6-yl)cyclopropane-1-carbonitrile] | < 1 | < 0.1
4 | C[C@H]1Nc2ncnc3c2cc(C2CCS(=O)(=O)CC2)c(=O)n3CC(=O)NCCCCN2CCC(CC2)C(F)(F)c2cccc1c2 [Compound 60, (4R)-6^6-(1,1-dioxidotetrahydro-2H-thiopyran-4-yl)-2,2-difluoro-4-methyl-6^7,6^8-dihydro-5,9-diaza-6(4,8)-pyrido[2,3-d]pyrimidina-1(4,1)-piperidina-3(1,3)-benzenacyclotridecaphane-6^7,8-dione] | < 1 | < 0.1
5 | CC1CCCCCCn2c(=O)c(C3(C#N)CC3)cc3c(ncnc32)N[C@H](C)c2cccc(c2)C(F)(F)C2CCN1CC2 (stereo partly drawn) [Compound 63, 1-((4R)-2,2-difluoro-4,13-dimethyl-6^7-oxo-6^7,6^8-dihydro-5-aza-6(4,8)-pyrido[2,3-d]pyrimidina-1(4,1)-piperidina-3(1,3)-benzenacyclotridecaphane-6^6-yl)cyclopropane-1-carbonitrile] | < 1 | < 0.1
6 | C[C@H]1Nc2ncnc3c2cc(N2CCOCC2)c(=O)n3CCCCCCCN2CCC(CC2)C(F)(F)c2cccc1c2 [Compound 64, (4R)-2,2-difluoro-4-methyl-6^6-morpholino-6^7,6^8-dihydro-5-aza-6(4,8)-pyrido[2,3-d]pyrimidina-1(4,1)-piperidina-3(1,3)-benzenacyclotridecaphan-6^7-one] | < 1 | < 0.1
7 | C[C@@H]1CCCNC(=O)Cn2c(=O)c(C3(C#N)CC3)cc3c(ncnc32)N[C@H](C)c2cccc(c2F)C(F)(F)C2CCN1CC2 [Compound 72, 1-((4R,13R)-3^2,2,2-trifluoro-4,13-dimethyl-6^7,8-dioxo-6^7,6^8-dihydro-5,9-diaza-6(4,8)-pyrido[2,3-d]pyrimidina-1(4,1)-piperidina-3(1,3)-benzenacyclotridecaphane-6^6-yl)cyclopropane-1-carbonitrile] | < 1 | < 0.1
8 | CC(C)N1CCC(c2cc3c4ncnc3n(c2=O)CCCCCCCN2CCC(CC2)C(F)(F)c2cccc(c2)[C@@H](C)N4)CC1 [Compound 73, (4R)-2,2-difluoro-6^6-(1-isopropylpiperidin-4-yl)-4-methyl-6^7,6^8-dihydro-5-aza-6(4,8)-pyrido[2,3-d]pyrimidina-1(4,1)-piperidina-3(1,3)-benzenacyclotridecaphan-6^7-one] | < 1 | < 0.1

The remaining lines, values ahead:

Row | IC50 [1] [µM] | IC50 (SOS1) [µM] | Compound
9 | < 1 | < 0.1 | CC(C)N1CCN(c2cc3c4ncnc3n(c2=O)CC(=O)NCCCCN2CCC(CC2)C(F)(F)c2cccc(c2)[C@@H](C)N4)CC1 [Compound 53, (4R)-2,2-difluoro-6^6-(4-isopropylpiperazin-1-yl)-4-methyl-6^7,6^8-dihydro-5,9-diaza-6(4,8)-pyrido[2,3-d]pyrimidina-1(4,1)-piperidina-3(1,3)-benzenacyclotridecaphane-6^7,8-dione]
10 | < 1 | < 0.1 | C[C@H]1Nc2ncnc3c2cc(C2CCS(=O)(=O)CC2)c(=O)n3CCCOCCCCN2CCC(CC2)C(F)(F)c2cccc1c2 [Compound 62, (4R)-66-(1,1-dioxidotetrahydro-2H-thiopyran-4-yl)-2,2-difluoro-4-methyl-67,68-dihydro-10-oxa-5-aza-6(4,8)-pyrido[2,3-d]pyrimidina-1(4,1)-piperidina-3(1,3)-benzenacyclotetradecaphan-67-one]
11 | < 1 | < 0.1 | C[C@H]1Nc2ncnc3c2cc(C2(C#N)CC2)c(=O)n3CCCC/C=C/CN2CCC(CC2(C)C)C(F)(F)c2cccc1c2 (stereo partly drawn) [Compound 70, 1-((4R,E)-2,2-difluoro-1^2,1^2,4-trimethyl-6^7-oxo-6^7,6^8-dihydro-5-aza-6(4,8)-pyrido[2,3-d]pyrimidina-1(4,1)-piperidina-3(1,3)-benzenacyclotridecaphan-11-en-6^6-yl)cyclopropane-1-carbonitrile]
12 | < 1 | < 0.1 | C[C@H]1Nc2ncnc3c2cc(C2(C#N)CC2)c(=O)n3CCNC(=O)CCCN2CCC(CC2)C(F)(F)c2cccc1c2 [Compound 71, 1-((4R)-2,2-difluoro-4-methyl-6^7,10-dioxo-6^7,6^8-dihydro-5,9-diaza-6(4,8)-pyrido[2,3-d]pyrimidina-1(4,1)-piperidina-3(1,3)-benzenacyclotridecaphane-6^6-yl)cyclopropane-1-carbonitrile]
13 | < 1 | < 0.1 | C[C@H]1Nc2ncnc3c2cc(C2CCS(=O)(=O)CC2)c(=O)n3CCCC/C=C/CN2CCC(CC2(C)C)C(F)(F)c2cccc1c2 (stereo partly drawn) [Compound 74, (4R,E)-6^6-(1,1-dioxidotetrahydro-2H-thiopyran-4-yl)-2,2-difluoro-1^2,1^2,4-trimethyl-6^7,6^8-dihydro-5-aza-6(4,8)-pyrido[2,3-d]pyrimidina-1(4,1)-piperidina-3(1,3)-benzenacyclotridecaphan-11-en-6^7-one]
14 | < 1 | < 0.1 | C[C@H]1Nc2ncnc3c2cc(C2(C#N)CCOCC2)c(=O)n3CCCCCCCN2CCC(CC2)C(F)(F)c2cccc1c2 [Compound 76, 4-((4R)-2,2-difluoro-4-methyl-6^7-oxo-6^7,6^8-dihydro-5-aza-6(4,8)-pyrido[2,3-d]pyrimidina-1(4,1)-piperidina-3(1,3)-benzenacyclotridecaphane-6^6-yl)tetrahydro-2H-pyran-4-carbonitrile]
15 | < 1 | < 0.1 | CC(C)N1CCN(c2cc3c4ncnc3n(c2=O)CCCOCCCCN2CCC(CC2)C(F)(F)c2cccc(c2F)[C@@H](C)N4)CC1 [Compound 77, (4R)-3^2,2,2-trifluoro-6^6-(4-isopropylpiperazin-1-yl)-4-methyl-6^7,6^8-dihydro-10-oxa-5-aza-6(4,8)-pyrido[2,3-d]pyrimidina-1(4,1)-piperidina-3(1,3)-benzenacyclotetradecaphan-6^7-one]
